Results reported in PMC5853465, “Use of D-glucose–fenpiclonil conjugate as a potent and specific inhibitor of sucrose carriers” (Journal of Experimental Botany, 2017).

Target: T1, AtSUC2 (Arabidopsis thaliana, UniProt Q39231)
T1 construct: gene SUC2; full coding region in plasmid pDR-R1-R2-HIS3 (derived from pDR 192), expressed in Saccharomyces cerevisiae RS453 cells
T1 sequence (Q39231 1-512): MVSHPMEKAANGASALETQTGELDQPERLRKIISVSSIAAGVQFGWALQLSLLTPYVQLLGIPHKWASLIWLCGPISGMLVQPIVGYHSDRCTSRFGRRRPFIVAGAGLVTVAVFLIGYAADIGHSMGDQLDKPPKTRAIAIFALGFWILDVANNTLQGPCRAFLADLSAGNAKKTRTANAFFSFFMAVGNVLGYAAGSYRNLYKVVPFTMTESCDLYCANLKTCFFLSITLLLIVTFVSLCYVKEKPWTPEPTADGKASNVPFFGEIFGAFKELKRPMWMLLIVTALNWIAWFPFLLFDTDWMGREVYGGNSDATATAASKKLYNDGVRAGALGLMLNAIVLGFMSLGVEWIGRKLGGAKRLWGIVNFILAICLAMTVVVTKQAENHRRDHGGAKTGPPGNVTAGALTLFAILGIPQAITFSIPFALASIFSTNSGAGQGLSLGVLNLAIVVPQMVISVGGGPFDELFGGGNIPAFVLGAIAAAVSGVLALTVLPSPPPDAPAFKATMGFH
Experiment: […]sucrose uptake into AtSUC2-transformed yeast, empty vector subtracted
Type: cell-based
Settings: read-out: Inibition^b (%)

Question: With `CC(C(=O)NCc1cn([C@@H]2O[C@H](CO)[C@@H](O)[C@H](O)[C@H]2O)nn1)n1cc(C#N)c(-c2cccc(Cl)c2Cl)c1` (stereo partly drawn) [D-GFC, D-glucose–fenpiclonil conjugate] as the compound, how does the inhibition at 500 µM read?
Answer: 81.5%
